According to paper PMC11892739, “Site-specific molecular glues for the 14-3-3/Tau pS214 protein–protein interaction via reversible covalent imine tethering” (RSC Medicinal Chemistry, 2025):

Molecular target: T1, 14-3-3γ/Tau pS214 interaction (Homo sapiens, UniProt P61981)
T1 construct: made in house; host or cells: NiCo21 (DE3) E. coli
T1 sequence (P61981 1-247): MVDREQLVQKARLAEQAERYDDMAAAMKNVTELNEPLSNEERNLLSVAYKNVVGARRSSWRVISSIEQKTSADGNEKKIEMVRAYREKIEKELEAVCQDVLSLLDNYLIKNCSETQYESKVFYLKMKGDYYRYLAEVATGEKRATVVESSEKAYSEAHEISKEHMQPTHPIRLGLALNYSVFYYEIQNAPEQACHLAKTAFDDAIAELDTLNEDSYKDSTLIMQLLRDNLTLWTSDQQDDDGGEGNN
Assay: Fluorescence anisotropy 14-3-3γ titration with compound and monovalent Tau pS214 peptide
Format: binding
Conditions: for apparent cooperativity factor (app. α), 14-3-3γ/Tau pS214: 2D titrations, 14-3-3γ titrated at varied compound concentrations, saturation of the ratio
Procedure: FA assays in which 14-3-3γ was titrated to a constant concentration of compound (250 μM) in the presence of the distinct monovalent Tau peptide (10 nM) were performed.
The determined stabilization factors are concentration-dependent (here 250 μM of compound) and might differ based on assay design. […] The app. α-factors of these compounds for both 14-3-3/Tau complexes were determined by 14-3-3γ titrations in the presence of varied concentrations of the particular compound (Fig. 5d and e). Both compounds reached saturation for both 14-3-3γ/Tau complexes enabling accurate determination of the α-factor. The app. α-factors of aldehydes 1 and 18 were plotted for both 14-3-3γ/Tau complexes to investigate phospho-binding site selective cooperativity (Fig. 5f and h). To do so, the stabilization factors at a given compound concentration were plotted against the compound concentration, leading to the determination of the app. α-factors. […]
chromatography (HisTrap high performance cartridges, Cytiva). Typically two 5 mL columns were used for a 2 L culture in which the lysate was loaded on the column, washed with 10 CV wash buffer (50 mM Hepes, pH 8.0, 300 mM NaCl, 25 mM imidazole, 2 mM βME), and eluted with several fractions (2-4 CV) of elution buffer (50 mM Hepes, pH 8.0, 300 mM NaCl, 250 mM imidazole, 2 mM βME). Fractions containing the 14-3-3 protein were combined and dialyzed into 25 mM HEPES pH 8.0, 200 mM NaCl, 10 mM MgCl2, 2 mM βME, followed by dialysis into 25 mM HEPES, 100 mM NaCl, 10 mM MgCl2, 500 μM TCEP (adjusted to pH 8.0). Dialyzed protein was concentrated to ∼40 mg/mL, analyzed by Q -Tof LC/MS, and aliquots were flash -frozen for storage at −80 °C. […]
0.1% (v/v) Tween20, 0.1% (w/v) BSA). Dilution series were made in polystyrene low -volume 384 -well plates (Corning #4514, Black Round Bottom). Measurements were performed directly after plate preparation, using a Tecan SPARK plate reader at room temperature ( λex: 485±20 nm; λem: 535±25 nm; mirror: automatic; flashes: 30; settle time: 1 ms; gain: optimal; Z -position: calculated from well). Wells containing only fluorescein labelled peptide were used to set as G -factor calibrated from these wells. All data were analyzed using GraphPad Prism (10.0.1) and fitted with a four -parameter logistic model (4PL) to determine binding affinities (dissociation constant, KD). All data shown is background corrected for the signal without 14 -3-3ζ and the mean and standard deviation of technical duplicate is plotted, assay performed in a scientific duplicate for hit compounds.
Fluorescence Anisotropy – 14-3-3 titrations in the presence of compound To characterize the affinity of the Tau peptides for 14-3-3 in the presence of compound, 14-3-3ζ or γ was titrated in a 2-fold dilution series starting at 400 (for the 14-3-3ζ titrations to Tau pS2) or 800 (for the 14-3-3γ titrations to Tau pS214 or pS324) µM. 14-3-3 was added to 10 nM of fluorescein-labeled peptide (Tau pS2, Tau pS214 or Tau pS324) in the presence of 250 µM compound (1% DMSO). The assays were performed in a similar way as described above. Data shown is the average and standard deviation of a technical duplicate, top plateau corrected where needed, assay performed in a scientific duplicate. […]
The peptide screen was performed in a similar way as the 14-3-3ζ titration in the precence of compound.
14-3-3ζ was titrated in a 2-fold dilution series (starting at 400 µM 14-3-3ζ) to 100 nM of fluorescein-labeled peptides and 250 µM compound 18 (1% DMSO) in FA buffer (10 mM HEPES pH 7.4, 150 mM […]
Data shown is the average of a scientific triplicate. […]
DSF was performed using 40 µl samples containing 2.5 µM 14 -3-3ζ, 25 µM Tau peptide (Tau pS2, Tau pS214 or Tau pS324), […] (1% DMSO) and 5x ProteoOrange (Lumiprobe, 5000x stock in DMSO) in 10 mM HEPES, 150 mM NaCl, 50 µM TCEP (pH 7.4). The samples were heated from 35 °C to 79°C at a rate of 0.3 °C per 15 s in a C FX96 Touch Real-Time PCR Detection System (Bio -Rad). Fluorescence […]

SMILES: O=Cc1ccc(-n2ccnc2-c2ccccc2)cc1Br [Compound 1]
- apparent cooperativity factor (app. α), 14-3-3γ/Tau pS214: 3.8

SMILES: CCc1ccc(-c2nccn2-c2ccc(C=O)c(Br)c2)cc1 [Compound 18]
- SF250μM for the 14-3-3γ/Tau pS214 complex (250 μM compound, 10 nM Tau pS214 peptide, internal DMSO reference): 8.6
- apparent cooperativity factor (app. α), 14-3-3γ/Tau pS214: 10.2
